Patent US11304946B2, “2-hetarylpyrimidine-4-carboxamides as aryl hydrocarbon receptor antagonists” (Bayer Aktiengesellschaft, priority 2017, dated 2022)

Tests used:
[1] = biological target: T1, Mouse AhR (Mus musculus, UniProt P30561); test: Transactivation assay in mouse cell line (in vitro assay 2: antagonism); format: cell-based; conditions: Hepa 1c1c7 cells, AHR inducible (DRE) firefly luciferase reporter, 200 μM kynurenic acid, 20 hours
T1 sequence (P30561 1-848): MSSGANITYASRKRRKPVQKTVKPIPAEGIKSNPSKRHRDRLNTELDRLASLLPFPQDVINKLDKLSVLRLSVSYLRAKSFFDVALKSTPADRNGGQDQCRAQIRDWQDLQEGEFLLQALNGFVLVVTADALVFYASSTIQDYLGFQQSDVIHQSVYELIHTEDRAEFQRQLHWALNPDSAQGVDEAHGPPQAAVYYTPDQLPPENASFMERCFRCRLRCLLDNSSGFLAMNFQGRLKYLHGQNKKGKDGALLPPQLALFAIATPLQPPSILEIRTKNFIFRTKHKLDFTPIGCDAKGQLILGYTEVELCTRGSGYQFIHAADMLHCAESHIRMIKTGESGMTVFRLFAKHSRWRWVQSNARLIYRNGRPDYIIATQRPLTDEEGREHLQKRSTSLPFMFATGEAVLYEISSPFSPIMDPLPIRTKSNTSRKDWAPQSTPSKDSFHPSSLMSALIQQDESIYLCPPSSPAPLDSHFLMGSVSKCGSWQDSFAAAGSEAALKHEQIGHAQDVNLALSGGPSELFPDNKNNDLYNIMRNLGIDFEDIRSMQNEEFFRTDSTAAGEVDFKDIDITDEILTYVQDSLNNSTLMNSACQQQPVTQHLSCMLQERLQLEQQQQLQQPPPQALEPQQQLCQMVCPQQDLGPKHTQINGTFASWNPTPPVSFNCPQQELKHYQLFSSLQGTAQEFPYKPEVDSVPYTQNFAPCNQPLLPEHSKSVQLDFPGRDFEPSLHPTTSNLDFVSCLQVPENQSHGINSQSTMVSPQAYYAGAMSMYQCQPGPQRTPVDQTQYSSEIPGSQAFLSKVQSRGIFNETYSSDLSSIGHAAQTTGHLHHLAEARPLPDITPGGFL
Description: Transactivation Assay in Mouse Cell Line (In Vitro Assay 2)
Transactivation assay was carried out in Hepa 1c1c7 cells (ATCC #CRL-2026) endogenously expressing AHR. In addition the cells were stably transfected with an AHR inducible firefly luciferase reporter gene construct that carried AHR-binding sites (DRE) in its promoter. Kynurenic acid is an endogenous AHR activating ligand and was used to prestimulate test cells prior to testing the antagonistic properties of compounds.
In Vitro Assay 2: Antagonism in Mouse Cell Line
Firefly luciferase activity was determined by the SteadyGlo Luciferase Assay System (Promega, #E2550).

[2] = biological target: T2, Human AhR (Homo sapiens, UniProt P35869); test: Transactivation assay in human cell line (in vitro assay 1: antagonism); format: cell-based; conditions: U87 glioblastoma cells, AHR inducible (DRE) firefly luciferase reporter, 150 μM kynurenic acid, 20 hours
T2 construct: host or cells: U87 glioblastoma cells, stably transfected with DRE-driven firefly luciferase and constitutive renilla reporter constructs
T2 sequence (P35869 11-848): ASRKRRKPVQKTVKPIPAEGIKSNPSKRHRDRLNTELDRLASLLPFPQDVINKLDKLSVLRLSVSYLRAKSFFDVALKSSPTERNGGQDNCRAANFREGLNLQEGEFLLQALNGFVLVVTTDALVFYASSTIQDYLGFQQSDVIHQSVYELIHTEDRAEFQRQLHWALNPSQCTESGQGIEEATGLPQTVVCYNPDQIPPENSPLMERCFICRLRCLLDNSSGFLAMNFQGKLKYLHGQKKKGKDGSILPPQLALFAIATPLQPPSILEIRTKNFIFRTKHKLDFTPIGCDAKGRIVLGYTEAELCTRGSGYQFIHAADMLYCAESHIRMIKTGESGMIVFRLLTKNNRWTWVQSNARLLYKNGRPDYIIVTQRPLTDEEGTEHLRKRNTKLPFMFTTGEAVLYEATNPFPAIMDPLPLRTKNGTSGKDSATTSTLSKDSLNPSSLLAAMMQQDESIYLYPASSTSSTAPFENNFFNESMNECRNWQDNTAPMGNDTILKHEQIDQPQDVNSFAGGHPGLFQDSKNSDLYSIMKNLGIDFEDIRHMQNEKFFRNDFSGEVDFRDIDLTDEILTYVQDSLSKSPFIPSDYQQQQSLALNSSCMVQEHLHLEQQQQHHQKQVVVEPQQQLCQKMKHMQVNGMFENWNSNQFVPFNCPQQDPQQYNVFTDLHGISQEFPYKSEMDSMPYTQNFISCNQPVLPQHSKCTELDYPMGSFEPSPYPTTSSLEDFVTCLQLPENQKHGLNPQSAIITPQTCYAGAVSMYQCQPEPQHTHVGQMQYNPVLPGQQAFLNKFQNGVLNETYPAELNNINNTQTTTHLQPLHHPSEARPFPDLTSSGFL
Summary of the method: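 U87 glioblastoma cells with endogenous AHR, stably carrying DRE-driven firefly luciferase and constitutive Renilla reporters, prestimulated with kynurenic acid before compound. Dual luciferase read-out; Renilla signal used to flag toxicity.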

| IC50 [1] | IC50 [2] | Compound |
| --- | --- | --- |
| 7.07 nM | 5.74 nM | Cn1cc(-c2nc(C(=O)N[C@@H]3CC[C@H]3O)cc(-c3ccc(OC(F)(F)F)cc3)n2)cn1 (relative stereo) [Example 86, N-[(trans)-2-hydroxycyclobutyl]-2-(1-methyl-1H-pyrazol-4-yl)-6-[4-(trifluoromethoxy)phenyl]pyrimidine-4-carboxamide] |
| 17.3 nM | 10.3 nM | CC(C)(O)CNC(=O)c1cc(-c2ccc(Cl)cc2)nc(-c2cncnc2)n1 [Example 55, 6-(4-chlorophenyl)-N-(2-hydroxy-2-methylpropyl)[2,5′-bipyrimidine]-4-carboxamide] |
| 62.9 nM | 33.6 nM | C[C@@H](CO)NC(=O)c1cc(-c2ccc(Cl)cc2)nc(-c2ccnn2C)n1 [Example 74, 6-(4-chlorophenyl)-N-[(2S)-1-hydroxypropan-2-yl]-2-(1-methyl-1H-pyrazol-5-yl)pyrimidine-4-carboxamide] |
| 58.1 nM | 14.3 nM | Cn1cc(-c2nc(C(=O)NCC(C)(C)O)cc(-c3ccc(Cl)cc3)n2)cn1 [Example 13, 6-(4-chlorophenyl)-N-(2-hydroxy-2-methylpropyl)-2-(1-methyl-1H-pyrazol-4-yl)pyrimidine-4-carboxamide] |
| 7.94 nM | 3.93 nM | C[C@@H](CO)NC(=O)c1cc(-c2ccc(Cl)cc2)nc(-c2cnn(C)c2)n1 [Example 11, 6-(4-chlorophenyl)-N-[(2S)-1-hydroxypropan-2-yl]-2-(1-methyl-1H-pyrazol-4-yl)pyrimidine-4-carboxamide] |
| 9830 nM | 7240 nM | CC(C)(O)CNC(=O)c1cc(-c2ccc(Cl)cc2)nc(-c2cnn(C3CC3)c2)n1 [Example 68, 6-(4-chlorophenyl)-2-(1-cyclopropyl-1H-pyrazol-4-yl)-N-(2-hydroxy-2-methylpropyl)pyrimidine-4-carboxamide] |
| 671 nM | 108 nM | Cc1ccc(-c2nc(C(=O)N[C@@H](C)CO)cc(-c3ccc(Cl)cc3)n2)cn1 [Example 79, 6-(4-chlorophenyl)-N-[(2S)-1-hydroxypropan-2-yl]-2-(6-methylpyridin-3-yl)pyrimidine-4-carboxamide] |

The next lines start with the compound.

| Compound | IC50 [1] | IC50 [2] |
| --- | --- | --- |
| Cn1cc(-c2nc(C(=O)NC(CO)Cc3cccnc3)cc(-c3ccc(OC(F)(F)F)cc3)n2)cn1 (stereo not drawn) [Example 93, N-[1-hydroxy-3-(pyridin-3-yl)propan-2-yl]-2-(1-methyl-1H-pyrazol-4-yl)-6-[4-(trifluoromethoxy)phenyl]pyrimidine-4-carboxamide] | 16.5 nM | 34.1 nM |
| Cc1ccc(-c2nc(C(=O)N[C@@H](C)CO)cc(-c3ccc(OC(F)(F)F)cc3)n2)cn1 [Example 39, N-[(2S)-1-hydroxypropan-2-yl]-2-(6-methylpyridin-3-yl)-6-[4-(trifluoromethoxy)phenyl]pyrimidine-4-carboxamide] | 431 nM | 68.4 nM |
| Cn1cc(-c2nc(C(=O)N[C@@H]3COC[C@@H]3O)cc(-c3ccc(OC(F)(F)F)cc3)n2)cn1 (relative stereo) [Example 105, N-[(cis)-4-hydroxyoxolan-3-yl]-2-(1-methyl-1H-pyrazol-4-yl)-6-[4-(trifluoromethoxy)phenyl]pyrimidine-4-carboxamide] | 6.01 nM | 8.48 nM |
| C[C@@H](CO)NC(=O)c1cc(-c2ccc(OC(F)(F)F)cc2)nc(-c2ccnn2C)n1 [Example 34, N-[(2S)-1-hydroxypropan-2-yl]-2-(1-methyl-1H-pyrazol-5-yl)-6-[4-(trifluoromethoxy)phenyl]pyrimidine-4-carboxamide] | 24 nM | 29.6 nM |
| Cn1cc(-c2nc(C(=O)N[C@H](CO)C(C)(C)C)cc(-c3ccc(OC(F)(F)F)cc3)n2)cn1 [Example 88, N-[(2S)-1-hydroxy-3,3-dimethylbutan-2-yl]-2-(1-methyl-1H-pyrazol-4-yl)-6-[4-(trifluoromethoxy)phenyl]pyrimidine-4-carboxamide] | 8.19 nM | 20.4 nM |
| C[C@@H](CO)NC(=O)c1cc(-c2ccc(Cl)cc2)nc(-c2ccc(C#N)s2)n1 [Example 70, 6-(4-chlorophenyl)-2-(5-cyanothiophen-2-yl)-N-[(2S)-1-hydroxypropan-2-yl]pyrimidine-4-carboxamide] | 295 nM | 94.2 nM |
| COc1ccncc1-c1nc(C(=O)N[C@@H](C)CO)cc(-c2ccc(Cl)cc2)n1 [Example 80, 6-(4-chlorophenyl)-N-[(2S)-1-hydroxypropan-2-yl]-2-(4-methoxypyridin-3-yl)pyrimidine-4-carboxamide] | 30.8 nM | 2.64 nM |
| Cc1ccsc1-c1nc(C(=O)N[C@@H](C)CO)cc(-c2ccc(Cl)cc2)n1 [Example 73, 6-(4-chlorophenyl)-N-[(2S)-1-hydroxypropan-2-yl]-2-(3-methylthiophen-2-yl)pyrimidine-4-carboxamide] | 28.8 nM | 16.3 nM |
| Cn1cc(-c2nc(C(=O)N[C@H]3CCCC[C@@H]3O)cc(-c3ccc(OC(F)(F)F)cc3)n2)cn1 (relative stereo) [Example 92, N-[(trans)-2-hydroxycyclohexyl]-2-(1-methyl-1H-pyrazol-4-yl)-6-[4-(trifluoromethoxy)phenyl]pyrimidine-4-carboxamide] | 5.79 nM | 4.27 nM |
| Cc1[nH]ncc1-c1nc(C(=O)NCC(C)(C)O)cc(-c2ccc(OC(F)(F)F)cc2)n1 [Example 24, N-(2-hydroxy-2-methylpropyl)-2-(3-methyl-1H-pyrazol-4-yl)-6-[4-(trifluoromethoxy)phenyl]pyrimidine-4-carboxamide] | 359 nM | 208 nM |
| Cn1cc(-c2nc(C(=O)N[C@H]3CCC[C@@H]3O)cc(-c3ccc(OC(F)(F)F)cc3)n2)cn1 (stereo in doubt) [Example 87, N-[(trans)-2-hydroxycyclopentyl]-2-(1-methyl-1H-pyrazol-4-yl)-6-[4-(trifluoromethoxy)phenyl]pyrimidine-4-carboxamide] | 3.93 nM | 5.33 nM |
| CC(C)Cn1cc(-c2nc(C(=O)N[C@@H](C)CO)cc(-c3ccc(OC(F)(F)F)cc3)n2)cn1 [Example 36, N-[(2S)-1-hydroxypropan-2-yl]-2-[1-(2-methylpropyl)-1H-pyrazol-4-yl]-6-[4-(trifluoromethoxy)phenyl]pyrimidine-4-carboxamide] | 10000 nM | 5220 nM |
| C[C@@H](CO)NC(=O)c1cc(-c2ccc(OC(F)(F)F)cc2)nc(-c2ccc(C#N)s2)n1 [Example 28, 2-(5-cyanothiophen-2-yl)-N-[(2S)-1-hydroxypropan-2-yl]-6-[4-(trifluoromethoxy)phenyl]pyrimidine-4-carboxamide] | 229 nM | 167 nM |
| C[C@@H](CO)NC(=O)c1cc(-c2ccc(OC(F)(F)F)cc2)nc(-c2cc[nH]n2)n1 [Example 37, N-[(2S)-1-hydroxypropan-2-yl]-2-(1H-pyrazol-3-yl)-6-[4-(trifluoromethoxy)phenyl]pyrimidine-4-carboxamide] | 93 nM | 71.7 nM |
